In PubChem BioAssay (NCI):
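GI50 is the concentration that inhibits growth by half. Definition used: TGI = concentration required for complete inhibition of growth.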

Experiments:
Test in all cases: growth of human tumour cells (NCI), 384-well format
MDA-MB-468 breast = test system: MDA-MB-468 breast
KM12 colon = test system: KM12 colon
HCT-15 colon = test system: HCT-15 colon
OVCAR-3 ovarian = test system: OVCAR-3 ovarian
U251 glioblastoma = test system: U251 glioblastoma
MCF7 breast = test system: MCF7 breast
RXF 393 renal = test system: RXF 393 renal
OVCAR-5 ovarian = test system: OVCAR-5 ovarian
MOLT-4 leukemia = test system: MOLT-4 leukemia
DU-145 prostate = test system: DU-145 prostate
HT29 colon = test system: HT29 colon
SF-539 CNS = test system: SF-539 CNS
OVCAR-8 ovarian = test system: OVCAR-8 ovarian
SF-295 CNS = test system: SF-295 CNS
SN12C renal = test system: SN12C renal
SF-268 CNS = test system: SF-268 CNS
M14 melanoma = test system: M14 melanoma
CCRF-CEM leukemia = test system: CCRF-CEM leukemia
HOP-62 NSCLC = test system: HOP-62 NSCLC
A498 renal = test system: A498 renal
RPMI-8226 leukemia = test system: RPMI-8226 leukemia
HCT-116 colon = test system: HCT-116 colon
ACHN renal = test system: ACHN renal
NCI-H23 lung = test system: NCI-H23 lung
UO-31 renal = test system: UO-31 renal
HL-60(TB) leukemia = test system: HL-60(TB) leukemia
786-0 renal = test system: 786-0 renal
NCI/ADR-RES ovarian = test system: NCI/ADR-RES ovarian
BT-549 breast = test system: BT-549 breast
CAKI-1 renal = test system: CAKI-1 renal
SNB-75 CNS = test system: SNB-75 CNS
LOX IMVI melanoma = test system: LOX IMVI melanoma
NCI-H226 lung = test system: NCI-H226 lung
SNB-19 CNS = test system: SNB-19 CNS
SK-OV-3 ovarian = test system: SK-OV-3 ovarian
K-562 leukemia = test system: K-562 leukemia
A549 NSCLC = test system: A549 NSCLC
NCI-H522 lung = test system: NCI-H522 lung
UACC-62 melanoma = test system: UACC-62 melanoma
T-47D breast = test system: T-47D breast
SW-620 colon = test system: SW-620 colon
HCC-2998 colon = test system: HCC-2998 colon
NCI-H460 NSCLC = test system: NCI-H460 NSCLC
HS 578T breast = test system: HS 578T breast
COLO 205 colon = test system: COLO 205 colon
HOP-92 NSCLC = test system: HOP-92 NSCLC
EKVX NSCLC = test system: EKVX NSCLC
MALME-3M melanoma = test system: MALME-3M melanoma
IGROV1 ovarian = test system: IGROV1 ovarian
NCI-H322M lung = test system: NCI-H322M lung
OVCAR-4 ovarian = test system: OVCAR-4 ovarian
MDA-MB-231 breast = test system: MDA-MB-231 breast
SK-MEL-5 melanoma = test system: SK-MEL-5 melanoma
PC-3 prostate = test system: PC-3 prostate
MDA-MB-435 melanoma = test system: MDA-MB-435 melanoma

S=P(N1CC1)(N1CC1)N1CC1
GI50 (MDA-MB-468 breast): 3.58 µM | TGI (MDA-MB-468 breast): 18.7 µM | GI50 (KM12 colon): 93.6 µM | GI50 (HCT-15 colon): 33.7 µM | GI50 (OVCAR-3 ovarian): 43.3 µM | GI50 (U251 glioblastoma): 20.7 µM | GI50 (MCF7 breast): 21.2 µM | GI50 (RXF 393 renal): 53.9 µM | GI50 (OVCAR-5 ovarian): 70.4 µM | GI50 (MOLT-4 leukemia): 0.4 µM | TGI (MOLT-4 leukemia): 1.49 µM | GI50 (DU-145 prostate): 7.82 µM | TGI (DU-145 prostate): 98.9 µM | GI50 (HT29 colon): 59.4 µM | GI50 (SF-539 CNS): 20.2 µM | TGI (SF-539 CNS): 92.8 µM | GI50 (OVCAR-8 ovarian): 28 µM | GI50 (SF-295 CNS): 11.3 µM | TGI (SF-295 CNS): 31.3 µM | GI50 (SN12C renal): 9.52 µM | GI50 (SF-268 CNS): 9.43 µM | GI50 (M14 melanoma): 24.8 µM | GI50 (CCRF-CEM leukemia): 4.2 µM | TGI (CCRF-CEM leukemia): 11 µM | GI50 (HOP-62 NSCLC): 8.65 µM | TGI (HOP-62 NSCLC): 31.8 µM | GI50 (A498 renal): 39.4 µM | GI50 (RPMI-8226 leukemia): 12 µM | TGI (RPMI-8226 leukemia): 36.4 µM | GI50 (HCT-116 colon): 34.1 µM | GI50 (ACHN renal): 19.9 µM | TGI (ACHN renal): 63.4 µM | GI50 (NCI-H23 lung): 17.3 µM | TGI (NCI-H23 lung): 99.5 µM | GI50 (UO-31 renal): 74.4 µM | GI50 (HL-60(TB) leukemia): 1.27 µM | TGI (HL-60(TB) leukemia): 2.85 µM | GI50 ([…]-0 renal): 32.7 µM | GI50 (NCI/ADR-RES ovarian): 30.1 µM | GI50 (BT-549 breast): 29 µM | GI50 (CAKI-1 renal): 17.8 µM | GI50 (SNB-75 CNS): 22 µM | GI50 (LOX IMVI melanoma): 24.9 µM | GI50 (NCI-H226 lung): 61.3 µM | GI50 (SNB-19 CNS): 41.6 µM | GI50 (SK-OV-3 ovarian): 29.8 µM | GI50 (K-562 leukemia): 74 µM | GI50 (A549 NSCLC): 38.4 µM | GI50 (NCI-H522 lung): 45.9 µM | GI50 (UACC-62 melanoma): 11 µM | GI50 (T-47D breast): 93.6 µM | GI50 (SW-620 colon): 61.6 µM

Cc1cn(-c2cc(NC(=O)c3ccc(C)c(Nc4nccc(-c5cccnc5)n4)c3)cc(C(F)(F)F)c2)cn1
GI50 (MDA-MB-468 breast): 1.77 µM | TGI (MDA-MB-468 breast): 3.31 µM | GI50 (HCC-2998 colon): 2.24 µM | TGI (HCC-2998 colon): 5.36 µM | GI50 (NCI-H460 NSCLC): 2.67 µM | TGI (NCI-H460 NSCLC): 9.42 µM | GI50 (KM12 colon): 2.5 µM | TGI (KM12 colon): 6.87 µM | GI50 (HS 578T breast): 1.55 µM | TGI (HS 578T breast): 2.9 µM | GI50 (HCT-15 colon): 3.6 µM | TGI (HCT-15 colon): 14.2 µM | GI50 (COLO 205 colon): 1.28 µM | TGI (COLO 205 colon): 2.98 µM | GI50 (OVCAR-3 ovarian): 1.73 µM | TGI (OVCAR-3 ovarian): 3.36 µM | GI50 (MCF7 breast): 1.88 µM | TGI (MCF7 breast): 3.67 µM | GI50 (RXF 393 renal): 1.47 µM | TGI (RXF 393 renal): 2.84 µM | GI50 (OVCAR-5 ovarian): 1.91 µM | TGI (OVCAR-5 ovarian): 5.09 µM | GI50 (HOP-92 NSCLC): 1.66 µM | TGI (HOP-92 NSCLC): 3.6 µM | GI50 (MOLT-4 leukemia): 1.89 µM | TGI (MOLT-4 leukemia): > 100 µM | GI50 (EKVX NSCLC): 1.88 µM | TGI (EKVX NSCLC): 3.78 µM | GI50 (DU-145 prostate): 2.8 µM | TGI (DU-145 prostate): 7.6 µM | GI50 (HT29 colon): 1.66 µM | TGI (HT29 colon): 3.78 µM | GI50 (OVCAR-8 ovarian): 1.59 µM | TGI (OVCAR-8 ovarian): 3.32 µM | GI50 (MALME-3M melanoma): 0.447 µM | TGI (MALME-3M melanoma): 1.62 µM | GI50 (IGROV1 ovarian): 1.87 µM | TGI (IGROV1 ovarian): 3.61 µM | GI50 (SF-295 CNS): 1.74 µM | TGI (SF-295 CNS): 3.39 µM | GI50 (SN12C renal): 3.61 µM | TGI (SN12C renal): > 100 µM | GI50 (M14 melanoma): 1.19 µM | TGI (M14 melanoma): 2.53 µM | GI50 (HOP-62 NSCLC): 2.21 µM | TGI (HOP-62 NSCLC): 5.73 µM | GI50 (NCI-H322M lung): 2.29 µM | TGI (NCI-H322M lung): 4.63 µM | GI50 (A498 renal): 1.98 µM | TGI (A498 renal): 3.94 µM | GI50 (RPMI-8226 leukemia): 1.46 µM | TGI (RPMI-8226 leukemia): 5.45 µM | GI50 (OVCAR-4 ovarian): 3.16 µM | TGI (OVCAR-4 ovarian): 7.25 µM | GI50 (HCT-116 colon): 1.65 µM | TGI (HCT-116 colon): 3.75 µM | GI50 (ACHN renal): 1.64 µM | TGI (ACHN renal): 3.47 µM | GI50 (NCI-H23 lung): 2.24 µM | TGI (NCI-H23 lung): 7.48 µM | GI50 (HL-60(TB) leukemia): 1.46 µM | TGI (HL-60(TB) leukemia): 7.92 µM | GI50 ([…]-0 renal): 1.64 µM | TGI (786-0 renal): 3.03 µM | GI50 (NCI/ADR-RES ovarian): 1.58 µM | TGI (NCI/ADR-RES ovarian): 3.74 µM | GI50 (BT-549 breast): 1.99 µM | TGI (BT-549 breast): 3.43 µM | GI50 (CAKI-1 renal): 3.04 µM | TGI (CAKI-1 renal): 10.8 µM | GI50 (MDA-MB-231 breast): 1.3 µM | TGI (MDA-MB-231 breast): 3.65 µM | GI50 (LOX IMVI melanoma): 2.2 µM | TGI (LOX IMVI melanoma): 9.93 µM | GI50 (NCI-H226 lung): 1.7 µM | TGI (NCI-H226 lung): 3.68 µM | GI50 (SK-OV-3 ovarian): 1.83 µM | TGI (SK-OV-3 ovarian): 3.3 µM | GI50 (A549 NSCLC): 1.72 µM | TGI (A549 NSCLC): 3.16 µM | GI50 (NCI-H522 lung): 1.82 µM | TGI (NCI-H522 lung): 4.48 µM | GI50 (SK-MEL-5 melanoma): 1.28 µM | TGI (SK-MEL-5 melanoma): 2.6 µM | GI50 (PC-3 prostate): 1.71 µM | TGI (PC-3 prostate): 3.13 µM | GI50 (MDA-MB-435 melanoma): 1.72 µM | TGI (MDA-MB-435 melanoma): 3.49 µM
